Assay results published in patent publication US11759480B2, “Compositions and methods for CAR T cell therapy” (ENDOCYTE, INC., priority 2017, dated 2023).
Read-outs that look alike come from different tables or passages of the source.

Legend:
[1] = system: MDA-MB-231 solid tumor xenografts; format: in vivo
Description: MDA-MB-231 cells were subcutaneously injected into the shoulders of NSG mice (Jackson Laboratory) to establish solid tumor xenografts. When tumor volume reached around 50-100 mm^3, anti-FITC CAR T cells (15×10^6 cells) were intravenously introduced into tumor-bearing mice. Twenty NSG mice were divided into four study groups (5 animals in each group). The first group was treated with anti-FITC CAR T cells with phosphate-buffered saline (PBS) as a negative control. The second, third, and fourth groups were treated with anti-FITC CAR T cells with FITC-Folate (500 nmole/kg) every other day. Once a significant toxicity (e.g. serious loss of body weight) was detected, these groups were treated with either: continued FITC-Folate administration (second group); discontinuation of FITC-Folate administration until the mice recovered (third group); or a mixture of 100-fold excess of EC0923 (i.e. free folate) and FITC-Folate until the mice recovered (fourth group). The body weight was measured regularly to monitor toxicity. In addition, the blood concentration of interferon (IFN)-gamma for each treatment group was measured to monitor the degree of anti-FITC CAR T activation. Finally, tumor volume was measured to identify anti-tumor efficacy in each treatment group.

HEK293-FRa = experiment: FITC-CAR-T/EC17 therapy, HEK293-FRa model (Example 28); format: in vivo, NSG mice; conditions: 500 nmol/kg weekly, 5 million FITC-CAR-T
Description: To test whether FITC-CAR-T/EC17 therapy has anti-tumor activity in various FR+ tumor models, NSG mice were subcutaneously implanted with MDA-MB-231 (triple negative breast cancer cell line), OV90 (human ovarian cancer cell line), KB (human cervical adenocarcinoma cell line), SKOV-3 (human ovarian carcinoma cell line), or HEK293-FRa (HEK293 stably-transfected with human FRa). When tumor size reached […], one dose of EC17 at 500 nmol/kg of body weight was injected by tail vein followed with administering of 5 million FITC-CAR-T cells 4 hours later. 500 nmol/kg EC17 was dosed once every week after the initial EC17/CAR-T administration (about day 7), tumor size and body weights of mice were monitored three times per week. The EC17 dosing days were labeled as green dashed vertical lines in the graph. […] EC17 dose-dependent temporary body weight loss was also observed in all tumor bearing mice, indicating the activation of CAR-Ts is EC17-dependent in these mice.

MDA-MB-231 = format: in vivo; conditions: for mice died (or euthanized due to sCRS): Week 2
Description: To evaluate whether pre-painting tumors with EC17 can reduce the therapy-related toxicity (e.g. sCRS), NSG mice were implanted with MDA-MB-231. Since larger tumor burden is correlated with more severe CRS, the treatment was started when tumor size reached […]. Mice were divided into two groups and predosed with 500 nmol/kg EC17 at different time points before CAR-T administration (FIGS. 26A and 26B). Group #1 was pre-dosed 4 hours before the administration of 8 million CAR-T cells, while group #2 was pre-dosed 24 hours before the administration of 8 million CAR-T cells. 500 nmol/kg EC17 was then i.v. dosed once per week (at days 1, 8, 15 etc.) post CAR-T administration (FIGS. 26D and 26E). […] No difference in anti-tumor activity was found in these two groups, and all surviving mice became tumor free eventually. Thus, toxicity was less in mice with 24 hour pre-painting than in mice with 4 hour pre-painting with EC17.

MDA-MB-231 tumors = experiment: FITC-CAR-T cell proliferation in vivo versus EC17 dose (Example 36); design: species or system NSG mice
Description: To evaluate whether the bridge dose can control CAR-T proliferation in vivo, NSG mice bearing MDA-MB-231 tumors (250-500 mm3) were divided into 4 groups and dosed with 0, 5, 50, or 500 nmol/kg of body weight of EC17 respectively (as shown in FIG. 40A). Four hours later, the four groups were administered with 5 million FITC-CAR-T cells which were cultured in vitro for 11 days, while one group of mice pre-dosed with 500 nmol/kg EC17 was not dosed with CAR-T cells and was used as a “No CAR-T control”. […] Blood samples were then collected 16 hours post the second EC17 dose and analyzed for CAR-T numbers in blood circulation (FIG. 40B). […] The interpretation of this finding is that CAR-T cells proliferated more in mice dosed with 50 or 500 nmol/kg EC17 than in mice dosed with 5 nmol/kg EC17, so that the CAR-T counts in blood circulation were higher.
To further confirm that FITC-CAR-T proliferation is EC17 dose-dependent, we also evaluated CAR-T proliferation in vivo when CAR-Ts were given more time to settle down and proliferate. For this purpose, we examined CAR-T cell number in mice which were administered with CAR-T cells six days earlier and four doses of EC17 had been given to boost CAR-T proliferation in vivo. NSG mice bearing MDA-MB-231 tumors (250-500 mm3) were divided into 4 groups and dosed with 0, 5, 50, or 500 nmol/kg of body weight of EC17 respectively (as shown in FIG. 41A). Four hours later, all mice were administered with 5 million FITC-CAR-T cells which were cultured in vitro for 18 days. Various levels of EC17 were then dosed at days 1, 3, 5 post CAR-T administering to boost CAR-T proliferation. Mouse blood samples were collected 24 hours post the last EC17 dose, CAR-T cells in blood were stained with anti-human CD45 antibody and counted by FACS.

MDA-MB-231 cells = experiment: Control of CRS with bridge molecules in vivo (Example 43); design: species or system NSG mice
Description: Mice were maintained on folic acid-deficient diet (TD.95247, Envigo) in order to reduce the level of folic acid in mice to a physiological levels found in humans. Tumors were measured every other day with calipers, and tumor volume was calculated according to equation: Tumor volume=½(L×W^2) where L is the longest axis of the tumor and W is the axis perpendicular to L. Mouse blood was also collected to measure cytokine levels (e.g. IL-2, IL-6, IFNγ, and TNFα) using LEGENDplex bead-based immunoassay (Biolegend, CA) and systemic toxicity was monitored by measuring body weight loss. All animal care and use followed by National Institutes of Health (NIH) guidelines and all experimental protocols were approved by the Purdue Animal Care and Use Committee.

In the case of `Nc1nc2ncc(CNc3ccc(C(=O)NC(CCC(=O)NCCNC(=S)Nc4ccc(-c5c6ccc(=O)cc-6oc6cc(O)ccc56)c(C(=O)O)c4)C(=O)O)cc3)nc2c(=O)[nH]1` (stereo not shown) [EC17, FITC-Folate], the IFN-gamma blood concentration ([1]; break group) is reported as “decreased”, the complete response ([1]; break group) is reported as 100% and the IFN-gamma blood concentration ([1]; continued dose group) is reported as “a significant amount IFN-gamma was detected”. The “survival of mice at the first week of treatment” value ([1]; continued dose group) was 40%, the tumor response ([1]; continued dose group) was “delay of tumor growth” and the tumor response (HEK293-FRa) was “progressive disease”. The “mice survived over 5 weeks” value (MDA-MB-231; 4-hour pre-painting) was 17%, the “mice died (or euthanized due to sCRS)” value (MDA-MB-231; 4-hour pre-painting) was 33% and the mice died (MDA-MB-231; 4-hour pre-painting, Week 3) was 33%. For the same compound, the mice died (MDA-MB-231; 4-hour pre-painting, week 4) was 17%, the “mice died (or euthanized due to sCRS)” value (MDA-MB-231; 24-hour pre-painting) was 17% and the “mice survived over 5 weeks” value (MDA-MB-231; NSG, mouse, in vivo) was 83%. For the same compound, the “tumor outcome of surviving mice” value (MDA-MB-231; both pre-painting groups) was “tumor free”, the “CAR-T cells in blood versus 0 nmol/kg EC17” value (MDA-MB-231 tumors; 5 nmol/kg, day 3) was “less CAR-T cells in their blood circulation” and the “CAR-T cells in blood” value (MDA-MB-231 tumors; 50 or 500 nmol/kg, day 3) was “more CAR-T cells in their blood circulation”. The “EC17 dose with the highest CAR-T count” value (MDA-MB-231 tumors; day 6, four EC17 doses) was 50 nmol/kg, the tumor outcome (MDA-MB-231 cells; 500 nmole/kg, days 4 and 6 omitted) was “complete tumor eradication” and the “mice requiring euthanasia by day 8” value (MDA-MB-231 cells; 15×10^6 CAR T cells, continuous alternate day 500 nmole/kg) was “three of the mice”. For the same compound, the body weight (MDA-MB-231 cells; continuous dosing of 500 nmole/kg, 15×10^6 CAR T cells) was “dramatic and continuous weight loss”, the therapeutic benefit (MDA-MB-231 cells; continuous dosing schedule) was “little therapeutic benefit” and the tumor outcome (MDA-MB-231 cells; continuously treated) was “rapid increase in tumor growth”. The “time to resolution of transient weight loss” value (MDA-MB-231 cells; escalation 0.5 to 500 nmole/kg, 15×10^6 CAR T cells) was ≤ 4 days, the tumor outcome (MDA-MB-231 cells; gradual dose escalation regimen) was “complete cures” and the tumor outcome (MDA-MB-231 cells; interrupted dosing) was “complete remission of their tumors”. For the same compound, the body weight (MDA-MB-231 cells; interrupted dosing (days 4 and 6 omitted)) was “only a moderate weight loss from which they rapidly recovered”, the tumor outcome (MDA-MB-231 cells; one dose per week) was “complete cures” and the body weight (MDA-MB-231 cells; single injection per week) was “no weight loss”. For the same compound, the body weight (MDA-MB-231 cells; three doses per week, 5×10^6 CAR T cells) was “significant animal weight loss”, the body weight loss (MDA-MB-231 cells; tumor-bearing mice, within 4 days, 5×10^6 CAR T cells + 500 nmoles/kg) was ~8% and the body weight (MDA-MB-231 cells; tumor-free mice) was “no weight loss was detected”. For the same compound, the toxicity (MDA-MB-231 cells; two doses per week) was “less toxicity”.
